Reference: patent publication US7468449B2, “Phenyl-furan compounds as vitamin D receptor modulators” (Eli Lilly and Company, priority 2003, dated 2008)
Several values for one entry are separate records, joined by “and”; a condition that tells them apart may be missing. Equal values may be shown once. Read-outs that look alike come from different tables or passages of the source.

Tests used:
[1] = in vivo, po
Protocol: The Mouse Hypercalcemia Assay
(§1) The Mouse Hypercalcemia Assay is a six day hypercalcemia test for toxicity and selectivity. Acceptable test results are levels greater than 300 μg/kg/day. Preferred assay results are levels greater than 1000 μg/kg/day.
(§2) (4) Materials and Method for The Mouse Hypercalcemia Assay:
(§3) Weanling, virus-antibody-free, five to six weeks old female DBF mice (Harlan, Indianapolis, Ind.) are used for all the studies. Animals are allowed to acclimate to local vivarium conditions for 2 days. […] The animals then are divided into groups with 4-5 mice per group. Different doses of test compounds prepared in 10% Ethanol and 90% sesame oil are administered to mice orally via gavage for 6 days. 1α-25(OH)2D3 0.5 μg/kg/d was also given to one group of mice as the positive control. […] Raw data of group differences is assessed by analysis of variance (ANOVA) using Fisher's protected least significant difference (PLSD) where the significance level was P<0.05.

[2] = test system: KERtr cells; assay: Keratinocyte proliferation assay; assay type: cell-based, Human; settings: BrdU incorporation
Protocol: 5. The Keratinocyte Proliferation Assay
This Assay is indicative for the treatment of psoriasis.
(5) The Keratinocyte Proliferation Assay:
KERtr cells (Human skin keratinocyte transformed with a retrovirus vector, obtained from ATCC) were plated in 96-well flat-bottomed plates (3000 cells/well) in 100 μl keratinocyte serum free medium supplemented with bovine pituitary extract in the absence of EGF (Life Technologies, Rockville, Md.) and incubated at 37° C. for two days. The cells were treated with various concentrations of VDR ligands (ten-fold serial dilution from 10,000 nM to 0.1 nM in triplicate), dissolved in 100 μl keratinocyte serum free medium supplemented with bovine pituitary extract in the absence of EGF and incubated at 37° C. for 72 hr. […] Potency values (IC50) values were determined as the concentration (nM) of compound that elicited a half-maximal response.

[3] = test system: IL-10; assay: IL-10 induction assay in PBMCs; assay type: cell-based; settings: TPA/PHA stimulated human PBMCs
From the text: 6. The IL-10 induction Assay
This is an in vitro efficacy assay for psoriasis, abscess and adhesion. Psoriasis involves both keratinocytes and immune cells. IL-10 is a unique cytokine because it is anti-inflammatory and immunosuppressive. This assay tells us whether a VDRM is able to function as an agonist in PBMCs ([…]) or not.
(6) Materials and Method for human IL-10 Induction Assay: […]

[4] = target: T1, RXR-VDR heterodimer (Homo sapiens, UniProt P11473); assay: RXR-VDR heterodimerization assay (SaOS-2 cells); assay type: cell-based; settings: luciferase reporter, Table 1
T1 construct: Add the Gal-4-RXR-DEF and VP16-VDR-LBD; expressed in transfected cells; host or cells: SaOs-2 cells
T1 sequence (P11473 127-423 limits assumed): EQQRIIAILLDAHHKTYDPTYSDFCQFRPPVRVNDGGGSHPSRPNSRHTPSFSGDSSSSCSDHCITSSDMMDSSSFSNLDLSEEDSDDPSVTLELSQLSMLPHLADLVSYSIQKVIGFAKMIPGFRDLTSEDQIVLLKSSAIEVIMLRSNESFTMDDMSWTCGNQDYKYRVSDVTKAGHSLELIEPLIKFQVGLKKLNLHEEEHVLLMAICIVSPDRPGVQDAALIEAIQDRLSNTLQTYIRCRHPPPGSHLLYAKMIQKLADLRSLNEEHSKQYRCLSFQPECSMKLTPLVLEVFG
T1 sequence (P19793 201-462 partner limits assumed): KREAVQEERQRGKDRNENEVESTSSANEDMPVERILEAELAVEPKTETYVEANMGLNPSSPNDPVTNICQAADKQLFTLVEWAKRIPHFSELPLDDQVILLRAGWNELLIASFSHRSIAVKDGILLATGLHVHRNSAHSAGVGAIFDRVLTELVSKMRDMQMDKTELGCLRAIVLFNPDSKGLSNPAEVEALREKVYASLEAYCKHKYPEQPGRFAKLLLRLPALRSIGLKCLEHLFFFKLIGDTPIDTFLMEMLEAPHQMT
From the text: 1. The RXR-VDR Heterodimer Assay:
This assay provides the VDR activity of a test compound.
(1) Materials and Method for RXR-VDR Heterodimerization Assay:
Transfection/Treatment Media: • D-MEM Low Glucose Without Phenol Red only
Flat well Plates: • Use well plate to plate cells • Use Deep well plate sterile to make up treatment media.
Luciferase Assay Reagent: • Use Steady-Glo Luciferase Reagent from Promega (Cat #E2550) Consists of: • a. E2533 Assay Substrate, lyopholized product and • b. E2543 Assay Buffer. • Thaw at room temperature • Store Day 1: Cell Plating: • Cell Harvesting • Aspirate media from culture flask, rinse cells with HBSS and aspirate. • Add trypsin and incubate. • When cells appear detached, resuspend cells in growth media. • Transfer into a new flask with fresh growth media for passaging the cells. • Plate well plates and two extra plates A. Cell Count • Mix the cell suspension using pipette • Use Hematocytometer to count the cells • Load cell suspension onto the hemocytometer chamber • Count cells.
Step 1: DNA and Media • Add plain DMEM media to tubes for mixing the DNA • Add the Reporter gene pFR-LUC • Add the Gal-4-RXR-DEF and VP16-VDR-LBD
Step 2: FuGENE and Media • Prepare plain DMEM media in a ubes for mixing PuGENE • Add FuGENE 6 Transection Reagent • Incubate
Step 3: FuGENE, DNA and Media Complex • Add FuGENE Media complex from step 2 to DNA Media complex from step1 • Incubate
Step 4: FuGENE, DNA and Media Complex to-well plate • Add FuGENE-DNA-Media complex from step 3 to each plate • Incubate. […] Day 4: Luciferase Assay • Read the plates after drug treatment • Remove part of media from all the wells and leave remainder • Add Steady-Glo Luciferase Reagent mixture/wells • Incubate • Count each well using a Luminescence counter, Top Count NXT by Packard Set a delay between plates to reduce the background. (2) Materials and Method for The Caco-2 Cell Assay: […]

[5] = target: T2, VDR (Homo sapiens, UniProt P11473); assay: VDR CTF (Caco-2 cell co-transfection) assay; assay type: cell-based; settings: Caco-2 cells, Gal-4-VDR-LBD co-transfection; Table 1
T2 construct: the receptor expression vector pGal-4-VDR-LBD (10 ng); expressed in transfected cells; host or cells: Caco-2 cells
T2 sequence (P11473 127-423 limits assumed): T1 sequence (P11473 127-423 limits assumed)
Protocol: 2. The Caco-2 Cell Co-transfection Assay:
The Caco-2 cell assay is an indicator for the undesirable condition of hypercalcemia. This co-transfection assay is a surrogate assay for in vivo calcemic activity of VDR ligands. […] Preferred assay results are greater than 1000 nM.
Step 4: FuGENE, DNA and Media Complex to-well plate • Add FuGENE-DNA-Media complex from step 3 to each plate • Incubate. […] Day 4: Luciferase Assay • Read the plates after drug treatment • Remove part of media from all the wells and leave remainder • Add Steady-Glo Luciferase Reagent mixture/wells • Incubate • Count each well using a Luminescence counter, Top Count NXT by Packard Set a delay between plates to reduce the background. (2) Materials and Method for The Caco-2 Cell Assay:
Caco-2 cells, grown in phenol red free, DMEM (Invitrogen, Carlsbad, Calif.) containing 10% charcoal-stripped FCS (Hyclone, Logan, Utah), were transfected with Fugene 6 reagent (Roche Diagnostics, Indianapolis, Ind.). Cells (5000/well) were plated 18 h before transfection in a 96 well plate. The Cells were transfected with Gal-4-responsive reporter pFRLuc (150 ng, Stratagene, La Jolla Calif.) and the receptor expression vector pGal-4-VDR-LBD (10 ng), along with Fugene 6 reagent (0.2 μl/well). The DNA-Fugene complex was formed by incubating the mixture for 30 min at room temperature. The cells were transfected in triplicate for 5 h, and treated with various concentrations of VDR ligands (form 0.01 nM to 10,000 nM concentration range) 18 h post-transfection. The luciferase activity was quantified using Steady-Glo reagent kit (Promega, Madison, Wis.) as per manufacturer's specifications.

[6] = test system: rat osteocalcin promoter; assay: OCN (osteocalcin) promoter assay; assay type: cell-based; settings: RG-15 (ROS 17/2.8) cells, 48 hr treatment, Table 1
Protocol: 3. The OCN (osteocalcin) Promoter Assay
The OCN Promoter Assay is an indicator and marker for osteoporosis. […] Preferred assay results are less than 50 nM.
(3) Materials and Method for The OCN Promoter Assay:
The activation of osteocalcin by VDR ligands was evaluated in a rat osteoblast-like cell line RG-15 (ROS 17/2.8) stably expressing rat osteocalcin promoter fused with luciferase reporter gene. […] After 24 hr, cells (in DMEM/F-12 medium +2% FBS) were treated with various concentrations of compounds, dissolved in DMSO. The final DMSO concentration remained at 0.01% (v/v). After 48 hr treatment, the medium was removed, cells were lysed with 50 μl of lysis buffer (From Luciferase reporter assay system, Roche Diagnostics, Indianapolis, Ind.) and assayed for luciferase activity using the Luciferase Reporter Gene Assay kit from Boehringer Mannheim as per manufacturer's specifications.

[7] = Mouse hypercalcemia assay; settings: six day hypercalcemia test, oral gavage, serum ionized calcium; Table 1
Protocol: The Mouse Hypercalcemia Assay
as §1, §2, §3

[8] = 72 hr, Table 2, read-out: Kera. Prolif. IC50

Structure (SMILES): C=C1/C(=C\C=C2/CCC[C@]3(C)[C@@H]([C@H](C)CCCC(C)(C)O)CC[C@@H]23)C[C@@H](O)C[C@@H]1O [AA, 1α,25-dihydroxyvitamin D3]
- Mouse Hypercal [1]: 0.06 µg/kg/day

Structure (SMILES): C=C1/C(=C\C=C2/CCC[C@]3(C)[C@@H]([C@H](C)/C=C/[C@@H](O)C4CC4)CC[C@@H]23)C[C@@H](O)C[C@@H]1O [FF, calcipotriol, reference compound]
- IC50 ([2]; Homo sapiens, Keratinocyte, 72 h, Table 4 comparison compounds, read-out: Kera. Prolif. IC50): 103 nM
- IC50 ([3]; PBMC, Table 4 comparison compounds): 0.5 nM

Structure (SMILES): CCc1cc(C(CC)(CC)c2ccc(C(=O)N(C)OC)o2)ccc1OCC(O)C(C)(C)C (single isomer, unassigned; enantiomer 1) [Ex. 13, 3′-[4-(2-hydroxy-3,3-dimethyl-butoxy)-3-ethylphenyl]-3′-[5-N-methoxy-N-methylamino-carbonyl-2-furanyl]pentane enantiomer 1]
- EC50 [4]: 18 nM
- EC50 [5]: 572 nM
- EC50 [6]: 20 nM
- IC50 [2, 8]: 18 nM
- IC50 ([3]; Table 2): 4.6 nM
- Mouse Hypercal [7]: >3000 µg/kg/day

Structure (SMILES): CCN(C)C(=O)c1ccc(C(CC)(CC)c2ccc(OCC(O)C(C)(C)C)c(C)c2)o1 (stereo not drawn) [Ex. 9, 3′-[4-(2-hydroxy-3,3-dimethyl-butoxy)-3-methylphenyl]-3′-[5-N-ethyl-N-methylamino-carbonyl-2-furanyl]pentane]
- EC50 [4]: 16 nM
- EC50 [5]: 616 nM
- EC50 [6]: 30 nM
- IC50 [2, 8]: 28 nM

Structure (SMILES): CCC(CC)(c1ccc(OCC(=O)C(C)(C)C)c(C)c1)c1ccc(C(=O)N(C)C)o1 [Ex. 1, 3′-[4-(2-oxo-3,3-dimethylbutoxy)-3-methylphenyl]-3′-[5-dimethylaminocarbonyl-2-furanyl]pentane]
- EC50 [4]: 3.3 nM and 0.6 nM
- EC50 [5]: 191 nM
- EC50 [6]: 3 nM
- EC50 ([6]; Rattus norvegicus, 48 h): 5 nM
- IC50 ([2]; Homo sapiens, Keratinocyte, 72 h, Table 2, read-out: Kera. Prolif. IC50): 15 nM
- Mouse Hypercal [7]: >1500 µg/kg/day

Structure (SMILES): CCc1cc(C(CC)(CC)c2ccc(C(=O)N(C)C)o2)ccc1OCC(O)C(C)(C)C (single isomer, unassigned; enantiomer 2) [Ex. 11, 3′-[4-(2-hydroxy-3,3-dimethyl-butoxy)-3-ethylphenyl]-3′-[5-dimethylaminocarbonyl-2-furanyl]pentane enantiomer 2]
- EC50 [4]: 17.6 nM
- EC50 [5]: 572 nM
- EC50 [6]: 20 nM
- IC50 [2, 8]: 18 nM
- Mouse Hypercal [7]: >3000 µg/kg/day
